Source: ChEMBL document CHEMBL5055685, “Discovery of the First Potent IDO1/IDO2 Dual Inhibitors: A Promising Strategy for Cancer Immunotherapy” (J Med Chem, 2021)
pIC50: −log10 of the molar value. Active and inactive are the calls of the source. No cut-off for these calls is given here.

Columns and labels:
[1] = target: Serine/threonine-protein kinase LATS2 (Homo sapiens) (UniProt Q9NRM7); test: Inhibition of LATS2 (unknown origin) at 1 uM
[2] = target: Serine/threonine-protein kinase 26 (Homo sapiens) (UniProt Q9P289); test: Inhibition of MST4 (unknown origin) at 1 uM
[3] = target: Serine/threonine-protein kinase MAK (Homo sapiens) (UniProt P20794); test: Inhibition of MAK (unknown origin) at 1 uM
[4] = target: Serine/threonine-protein kinase WNK2 (Homo sapiens) (UniProt Q9Y3S1); test: Inhibition of WNK2 (unknown origin) at 1 uM
[5] = target: Ephrin type-A receptor 3 (Homo sapiens) (UniProt P29320); test: Inhibition of EPHA3 (unknown origin) at 1 uM
[6] = Apparent permeability across basolateral to apical side in human Caco-2 cells assessed as drug recovery; assay type: ADME, cell-based; conditions: read-out: Drug recovery
[7] = Metabolic stability in human liver microsomes assessed as rate constant; assay type: ADME, Microsome
[8] = target: Serine/threonine-protein kinase DCLK2 (Homo sapiens) (UniProt Q8N568); test: Inhibition of DCAMKL2 (unknown origin) at 1 uM
[9] = target: Tyrosine-protein kinase Lyn (Homo sapiens) (UniProt P07948); test: Inhibition of LYN-B (unknown origin) at 1 uM
[10] = target: Leukocyte tyrosine kinase receptor (Homo sapiens) (UniProt P29376); test: Inhibition of TYK1 (unknown origin) at 1 uM
[11] = target: Non-receptor tyrosine-protein kinase TYK2 (Homo sapiens) (UniProt P29597); test: Inhibition of TYK2 (unknown origin) at 1 uM
[12] = system: Mus musculus; test: In vivo inhibition of TDO in BALB/c mouse xenografted with human HCT-116 cells assessed as suppression of TDO expression in tumor by immunohistochemical assay; assay type: functional, organism-based
[13] = target: Dual specificity mitogen-activated protein kinase kinase 6 (Homo sapiens) (UniProt P52564); test: Inhibition of MKK6 (unknown origin) at 1 uM
[14] = Half life in rat liver microsomes; assay type: ADME, Microsome
[15] = target: Serine/threonine-protein kinase PAK 4 (Homo sapiens) (UniProt O96013); test: Inhibition of PAK4 (unknown origin) at 1 uM
[16] = species on record: Homo sapiens; test: Inhibition of PKG2 (unknown origin) at 1 uM
[17] = target: Serine/threonine-protein kinase Nek1 (Homo sapiens) (UniProt Q96PY6); test: Inhibition of NEK1 (unknown origin) at 1 uM
[18] = target: Serine/threonine-protein kinase Nek11 (Homo sapiens) (UniProt Q8NG66); test: Inhibition of NEK11 (unknown origin) at 1 uM
[19] = target: Aurora kinase A (Homo sapiens) (UniProt O14965); test: Inhibition of Aurora A (unknown origin) at 1 uM
[20] = target: Tyrosine-protein kinase Srms (Homo sapiens) (UniProt Q9H3Y6); test: Inhibition of SRMS (unknown origin) at 1 uM
[21] = target: Phosphorylase b kinase gamma catalytic chain, liver/testis isoform (Homo sapiens) (UniProt P15735); test: Inhibition of PHKgamma2 (unknown origin) at 1 uM
[22] = target: Serine/threonine-protein kinase D2 (Homo sapiens) (UniProt Q9BZL6); test: Inhibition of PKD2 (unknown origin) at 1 uM
[23] = system: HCT-116; test: Antitumor immunity in BALB/c mouse xenografted with human HCT-116 cells assessed as early Treg cells in spleen by propidium iodide staining based flow cytometry analysis (reference value: 9.33 %); assay type: functional
[24] = Half life in Sprague-Dawley rat at 5 mg/kg, iv; assay type: ADME, organism-based; conditions: in vivo
[25] = target: Receptor-type tyrosine-protein kinase FLT3 (Homo sapiens) (UniProt P36888); test: Inhibition of FLT3 (unknown origin) at 1 uM
[26] = target: Cyclin-dependent kinase 5/CDK5 activator 1 (Homo sapiens) (UniProt Q00535+Q15078); test: Inhibition of CDK5/p35 (unknown origin) at 1 uM; assay type: protein-complex assay
[27] = Metabolic stability in monkey liver microsomes assessed as rate constant; assay type: ADME, Macaca mulatta, Microsome; conditions: rhesus monkey
[28] = target: G protein-coupled receptor kinase 4 (Homo sapiens) (UniProt P32298); test: Inhibition of GRK4 (unknown origin) at 1 uM
[29] = target: Ephrin type-A receptor 1 (Homo sapiens) (UniProt P21709); test: Inhibition of EPHA1 (unknown origin) at 1 uM
[30] = system: Mus musculus; test: In vivo inhibition of TDO in BALB/c mouse xenografted with human HCT-116 cells assessed as suppression of TDO mRNA expression in tumor by quantitative RT-PCR analysis; assay type: functional, organism-based
[31] = target: Indoleamine 2,3-dioxygenase 1 (Homo sapiens, UniProt P14902); test: Inhibition of IDO1 in IFNgamma-stimulated human HeLa cells assessed as reduction in kynurenine formation measured after 48 hrs by spectrophotometry
[32] = target: Serine/threonine-protein kinase pim-2 (Homo sapiens) (UniProt Q9P1W9); test: Inhibition of PIM2 (unknown origin) at 1 uM
[33] = target: Serine/threonine-protein kinase haspin (Homo sapiens) (UniProt Q8TF76); test: Inhibition of haspin (unknown origin) at 1 uM
[34] = target: Serine/threonine-protein kinase PAK 1 (Homo sapiens) (UniProt Q13153); test: Inhibition of PAK1 (unknown origin) at 1 uM
[35] = Clearance in Sprague-Dawley rat at 5 mg/kg, iv; assay type: ADME, organism-based; conditions: in vivo
[36] = target: Mitogen-activated protein kinase 13 (Homo sapiens) (UniProt O15264); test: Inhibition of p38delta (unknown origin) at 1 uM
[37] = target: Serine/threonine-protein kinase TBK1 (Homo sapiens) (UniProt Q9UHD2); test: Inhibition of TBK1 (unknown origin) at 1 uM
[38] = target: Protein kinase C delta type (Homo sapiens) (UniProt Q05655); test: Inhibition of PKCdelta (unknown origin)at 1 uM
[39] = target: Serine/threonine-protein kinase NIM1 (Homo sapiens) (UniProt Q8IY84); test: Inhibition of NIM1 (unknown origin) at 1 uM
[40] = target: Kinase suppressor of Ras 1 (Homo sapiens) (UniProt Q8IVT5); test: Inhibition of KSR1 (unknown origin) at 1 uM
[41] = target: Serine/threonine-protein kinase 17A (Homo sapiens) (UniProt Q9UEE5); test: Inhibition of DRAK1 (unknown origin) at 1 uM
[42] = target: Casein kinase I isoform alpha-like (Homo sapiens) (UniProt Q8N752); test: Inhibition of CK1a1L (unknown origin) at 1 uM
[43] = Protein binding in ICR mouse plasma by equilibrium dialysis; assay type: ADME, cell-free; conditions: read-out: PPB (converted)
[44] = target: Serine/threonine-protein kinase/endoribonuclease IRE1 (Homo sapiens) (UniProt O75460); test: Inhibition of ERN1 (unknown origin) at 1 uM
[45] = target: Mitogen-activated protein kinase kinase kinase 19 (Homo sapiens) (UniProt Q56UN5); test: Inhibition of YSK4 (unknown origin) at 1 uM
[46] = target: Angiopoietin-1 receptor (Homo sapiens) (UniProt Q02763); test: Inhibition of TIE2 (unknown origin) at 1 uM

Chain of Non-receptor tyrosine-protein kinase TYK2 (Homo sapiens) (P29597 whole entry): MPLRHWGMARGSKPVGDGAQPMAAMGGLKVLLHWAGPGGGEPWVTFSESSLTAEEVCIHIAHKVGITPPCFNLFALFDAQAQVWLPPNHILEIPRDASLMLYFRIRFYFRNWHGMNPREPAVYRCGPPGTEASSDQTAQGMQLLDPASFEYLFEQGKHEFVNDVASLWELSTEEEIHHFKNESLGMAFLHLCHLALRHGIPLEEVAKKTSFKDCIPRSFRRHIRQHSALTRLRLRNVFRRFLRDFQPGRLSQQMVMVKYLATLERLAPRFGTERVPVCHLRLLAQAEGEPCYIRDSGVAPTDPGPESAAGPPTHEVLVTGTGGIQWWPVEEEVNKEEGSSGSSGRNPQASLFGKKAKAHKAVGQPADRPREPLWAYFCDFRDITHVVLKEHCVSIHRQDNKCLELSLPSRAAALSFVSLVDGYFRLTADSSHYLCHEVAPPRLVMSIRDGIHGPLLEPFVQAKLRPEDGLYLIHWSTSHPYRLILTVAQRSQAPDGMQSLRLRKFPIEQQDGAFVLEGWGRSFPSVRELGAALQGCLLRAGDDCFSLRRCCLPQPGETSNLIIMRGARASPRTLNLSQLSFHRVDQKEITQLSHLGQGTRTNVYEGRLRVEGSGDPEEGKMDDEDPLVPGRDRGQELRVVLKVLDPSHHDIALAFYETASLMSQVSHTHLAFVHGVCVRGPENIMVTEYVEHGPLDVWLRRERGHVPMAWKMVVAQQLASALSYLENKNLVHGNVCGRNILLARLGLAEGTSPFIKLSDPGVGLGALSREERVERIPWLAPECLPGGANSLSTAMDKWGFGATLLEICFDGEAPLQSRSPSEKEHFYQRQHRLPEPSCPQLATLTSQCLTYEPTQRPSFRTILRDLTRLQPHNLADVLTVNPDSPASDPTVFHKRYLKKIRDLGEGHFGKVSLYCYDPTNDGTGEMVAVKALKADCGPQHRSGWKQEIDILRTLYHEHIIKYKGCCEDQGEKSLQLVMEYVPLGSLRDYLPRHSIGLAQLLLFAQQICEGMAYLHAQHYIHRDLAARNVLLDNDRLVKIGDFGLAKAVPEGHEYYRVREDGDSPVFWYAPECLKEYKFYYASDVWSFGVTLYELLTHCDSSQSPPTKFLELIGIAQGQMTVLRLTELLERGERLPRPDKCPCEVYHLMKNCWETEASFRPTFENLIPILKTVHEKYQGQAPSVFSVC
Chain of Dual specificity mitogen-activated protein kinase kinase 6 (Homo sapiens) (P52564 whole entry): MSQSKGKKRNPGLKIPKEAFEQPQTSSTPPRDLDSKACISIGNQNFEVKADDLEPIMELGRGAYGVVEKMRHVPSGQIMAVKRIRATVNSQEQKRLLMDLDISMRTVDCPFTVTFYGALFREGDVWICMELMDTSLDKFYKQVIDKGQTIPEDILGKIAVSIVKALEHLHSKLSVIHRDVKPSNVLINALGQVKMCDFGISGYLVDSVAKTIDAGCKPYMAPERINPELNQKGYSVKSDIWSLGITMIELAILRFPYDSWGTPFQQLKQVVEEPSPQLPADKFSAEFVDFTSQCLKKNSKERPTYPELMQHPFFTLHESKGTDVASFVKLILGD
Chain of Serine/threonine-protein kinase 17A (Homo sapiens) (Q9UEE5 whole entry, canonical isoform): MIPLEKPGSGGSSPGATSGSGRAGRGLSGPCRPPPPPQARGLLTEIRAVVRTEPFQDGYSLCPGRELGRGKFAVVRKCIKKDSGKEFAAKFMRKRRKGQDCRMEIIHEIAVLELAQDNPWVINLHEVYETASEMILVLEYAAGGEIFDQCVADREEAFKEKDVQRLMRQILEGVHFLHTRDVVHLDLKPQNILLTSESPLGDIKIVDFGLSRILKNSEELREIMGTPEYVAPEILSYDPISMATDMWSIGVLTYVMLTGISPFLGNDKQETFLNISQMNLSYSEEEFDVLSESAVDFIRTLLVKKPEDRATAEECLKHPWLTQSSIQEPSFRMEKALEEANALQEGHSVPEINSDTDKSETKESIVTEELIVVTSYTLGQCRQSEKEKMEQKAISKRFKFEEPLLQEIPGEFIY
Chain of Serine/threonine-protein kinase TBK1 (Homo sapiens) (Q9UHD2 whole entry): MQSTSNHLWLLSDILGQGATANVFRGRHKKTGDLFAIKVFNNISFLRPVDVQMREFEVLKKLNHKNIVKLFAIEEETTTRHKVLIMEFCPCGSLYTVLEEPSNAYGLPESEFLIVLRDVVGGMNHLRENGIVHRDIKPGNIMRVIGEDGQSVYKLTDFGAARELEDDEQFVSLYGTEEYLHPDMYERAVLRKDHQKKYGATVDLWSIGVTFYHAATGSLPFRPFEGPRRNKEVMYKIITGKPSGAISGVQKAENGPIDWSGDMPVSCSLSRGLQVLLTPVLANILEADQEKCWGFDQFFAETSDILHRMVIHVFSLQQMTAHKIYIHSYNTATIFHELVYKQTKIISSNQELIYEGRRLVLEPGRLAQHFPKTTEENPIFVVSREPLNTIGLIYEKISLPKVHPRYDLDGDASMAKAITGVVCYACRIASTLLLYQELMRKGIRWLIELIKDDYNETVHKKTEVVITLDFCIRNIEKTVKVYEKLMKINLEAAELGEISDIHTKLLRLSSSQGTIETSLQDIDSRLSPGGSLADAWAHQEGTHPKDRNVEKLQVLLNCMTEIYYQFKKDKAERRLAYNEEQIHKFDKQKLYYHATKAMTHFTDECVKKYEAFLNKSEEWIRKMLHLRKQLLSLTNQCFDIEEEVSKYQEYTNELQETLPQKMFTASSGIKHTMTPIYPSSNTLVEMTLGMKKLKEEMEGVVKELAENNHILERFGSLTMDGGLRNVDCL
Chain of G protein-coupled receptor kinase 4 (Homo sapiens) (P32298 whole entry, looked up): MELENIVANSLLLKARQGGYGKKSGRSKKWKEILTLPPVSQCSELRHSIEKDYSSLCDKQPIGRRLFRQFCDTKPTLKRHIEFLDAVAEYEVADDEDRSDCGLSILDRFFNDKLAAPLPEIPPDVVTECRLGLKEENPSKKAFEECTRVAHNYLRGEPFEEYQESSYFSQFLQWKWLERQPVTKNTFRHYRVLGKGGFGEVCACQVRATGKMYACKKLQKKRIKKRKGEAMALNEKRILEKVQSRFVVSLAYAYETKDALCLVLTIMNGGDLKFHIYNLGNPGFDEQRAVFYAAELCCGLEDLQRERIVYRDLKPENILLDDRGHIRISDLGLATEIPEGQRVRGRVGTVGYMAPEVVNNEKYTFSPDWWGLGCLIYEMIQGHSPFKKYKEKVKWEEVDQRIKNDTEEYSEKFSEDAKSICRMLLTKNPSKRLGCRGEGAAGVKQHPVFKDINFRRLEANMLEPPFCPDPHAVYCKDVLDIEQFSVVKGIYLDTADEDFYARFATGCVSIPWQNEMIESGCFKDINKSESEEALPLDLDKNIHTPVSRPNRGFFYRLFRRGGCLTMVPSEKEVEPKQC
Chain of Indoleamine 2,3-dioxygenase 1 (P14902 whole entry): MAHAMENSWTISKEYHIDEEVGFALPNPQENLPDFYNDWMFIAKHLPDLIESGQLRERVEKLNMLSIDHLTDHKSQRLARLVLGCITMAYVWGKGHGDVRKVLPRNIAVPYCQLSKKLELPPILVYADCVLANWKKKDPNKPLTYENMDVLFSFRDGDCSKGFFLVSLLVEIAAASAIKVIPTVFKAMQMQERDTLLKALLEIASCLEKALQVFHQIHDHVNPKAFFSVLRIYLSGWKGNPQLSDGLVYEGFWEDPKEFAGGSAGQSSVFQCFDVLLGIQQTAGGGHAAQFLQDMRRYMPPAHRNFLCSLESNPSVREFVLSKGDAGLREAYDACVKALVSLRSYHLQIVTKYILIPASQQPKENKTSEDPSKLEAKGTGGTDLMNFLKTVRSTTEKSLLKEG
Chain of Kinase suppressor of Ras 1 (Homo sapiens) (Q8IVT5 whole entry): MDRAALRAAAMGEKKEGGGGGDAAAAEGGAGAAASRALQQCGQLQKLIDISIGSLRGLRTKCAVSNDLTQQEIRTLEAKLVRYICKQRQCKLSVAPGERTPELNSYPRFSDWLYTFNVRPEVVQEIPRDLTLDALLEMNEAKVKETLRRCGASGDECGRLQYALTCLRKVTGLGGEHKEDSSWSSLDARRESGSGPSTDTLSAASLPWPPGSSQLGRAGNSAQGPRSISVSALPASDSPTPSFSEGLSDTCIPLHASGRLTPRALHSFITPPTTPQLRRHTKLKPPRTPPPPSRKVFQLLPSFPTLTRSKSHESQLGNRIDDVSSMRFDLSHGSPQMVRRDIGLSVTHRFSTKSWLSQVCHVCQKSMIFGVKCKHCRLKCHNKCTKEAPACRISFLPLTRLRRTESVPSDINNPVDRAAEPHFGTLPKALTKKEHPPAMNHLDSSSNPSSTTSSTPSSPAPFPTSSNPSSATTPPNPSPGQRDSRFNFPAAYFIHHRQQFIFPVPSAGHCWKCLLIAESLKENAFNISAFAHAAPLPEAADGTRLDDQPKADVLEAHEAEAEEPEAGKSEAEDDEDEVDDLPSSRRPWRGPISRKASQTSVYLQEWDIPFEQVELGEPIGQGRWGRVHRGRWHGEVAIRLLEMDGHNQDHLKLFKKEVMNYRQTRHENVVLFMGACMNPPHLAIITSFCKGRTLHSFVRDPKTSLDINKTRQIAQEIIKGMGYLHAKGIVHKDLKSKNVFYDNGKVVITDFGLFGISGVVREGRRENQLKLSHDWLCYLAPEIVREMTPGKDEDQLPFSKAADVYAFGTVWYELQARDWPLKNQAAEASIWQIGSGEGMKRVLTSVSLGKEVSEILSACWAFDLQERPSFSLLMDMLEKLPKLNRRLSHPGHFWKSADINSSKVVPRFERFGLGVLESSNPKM
Chain of Mitogen-activated protein kinase 13 (Homo sapiens) (O15264 whole entry): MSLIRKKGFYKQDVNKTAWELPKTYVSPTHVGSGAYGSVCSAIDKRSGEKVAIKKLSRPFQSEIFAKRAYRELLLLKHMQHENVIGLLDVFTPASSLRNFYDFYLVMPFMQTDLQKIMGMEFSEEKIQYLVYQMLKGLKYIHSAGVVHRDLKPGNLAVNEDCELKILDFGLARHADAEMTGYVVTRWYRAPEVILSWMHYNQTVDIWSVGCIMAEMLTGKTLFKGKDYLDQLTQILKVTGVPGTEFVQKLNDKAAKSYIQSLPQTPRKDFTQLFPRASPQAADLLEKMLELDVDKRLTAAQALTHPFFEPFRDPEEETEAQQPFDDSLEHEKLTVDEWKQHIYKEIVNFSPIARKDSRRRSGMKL

SMILES: OCCOCc1cn(CCNc2nonc2/C(=N/O)Nc2ccc(F)c(Br)c2)nn1
- inhibition [1]: inactive
- inhibition [2]: inactive
- inhibition [3]: inactive
- inhibition [4]: inactive
- inhibition [5]: inactive
- recovery [6]: 112%
- k el [7]: 0.00025 s⁻¹
- inhibition [8]: inactive
- inhibition [9]: inactive
- inhibition [10]: inactive
- inhibition [11]: inactive
- inhibition [12]: inactive
- inhibition [13]: inactive
- half-life [14]: 21.2 min
- inhibition [15]: inactive
- inhibition [16]: inactive
- inhibition [17]: inactive
- inhibition [18]: inactive
- inhibition [19]: inactive
- inhibition [20]: inactive
- inhibition [21]: inactive
- inhibition [22]: inactive
- Activity [23]: 4.54%
- half-life [24]: 36.6 min
- inhibition [25]: inactive
- inhibition [26]: inactive
- k el [27]: 0.0003 s⁻¹
- inhibition [28]: inactive
- inhibition [29]: inactive
- inhibition [30]: inactive
- pIC50 [31]: 8.67
- inhibition [32]: inactive
- inhibition [33]: inactive
- inhibition [34]: inactive
- clearance [35]: 27.5 mL/min/kg
- inhibition [36]: inactive
- inhibition [37]: inactive
- inhibition [38]: inactive
- inhibition [39]: inactive
- inhibition [40]: inactive
- inhibition [41]: inactive
- inhibition [42]: inactive
- fraction unbound [43]: 0.0968
- inhibition [44]: inactive
- inhibition [45]: inactive
- inhibition [46]: inactive
